# In patent publication US10772911B2, “Cell free compositions for cellular restoration and methods of making and using same” (Advanced ReGen Medical Technologies, LLC, priority 2013, dated 2020):
# Key:
# Type in all cases: cell-based
# restored cells = experiment: cell morphology in transwell co-culture; conditions: co-cultured in the presence of 5 μM manumycin vs absence
# Text: (§1) Receiver cell samples (i.e., R1, R2, and R3) were individually paired with donor cell samples (i.e., D1, D2, and D3) and the pairs co-cultured in a transwell culture cell for four weeks. The morphology of the cells was studied at 2 weeks into the co-culture and at 4 weeks of co-culture. Gene expression arrays, protein arrays, and telomere length experiments compared freshly defrosted cells from the collection tubes (referred to as the baseline donor cell sample or baseline receiver cell sample) with cells at the 4-week study endpoint (referred to as restored cell samples).
# The nature of the soluble particles passing through the permeable membrane in the transwell co-culture experiments was investigated. Specifically, transwell co-culture experiments were carried out in the presence or absence of manumycin. Manumycin, -[(1S,5S,6R)-5-hydroxy-5-[(1E,3E,5E)-7-[(2-hydroxy-5-oxo-1-cyclopenten-1-yl)amino]-7-oxo-1,3,5-heptatrien-1-yl]-2-oxo-7-oxabicyclo[4.1.0]hept-3-en-3-yl]-2E,4E,6R-trimethyl, 2,4-decadienamide, is an antibiotic that acts a potent and selective farnesytransferase inhibitor. Mannumycin is also known to inhibit the release of exosomes. […] Further support for the role of exosome/microvesicles in mediating the disclosed cellular restoration process is shown in FIG. 12.
# senescence-related genes = experiment: quantitative PCR gene array of senescence-related genes; conditions: co-cultured in the presence of manumycin vs absence
# Text: as §1
# (§2) Protein array analyses were carried out using conditioned media from the baseline donor cell sample or baseline receiver cell sample. The conditioned media was mixed with like cellular protein extracts and applied to the custom-designed arrays which consisted of antibody probes for 68 factors linked to cellular aging and senescence, collectively referred to as the senescence-associated secretory factors (SASF). Quantitative PCR gene array analyses were carried out by extracting RNA from the baseline samples or the co-cultured donor and receiver samples. The data presented represents the average metric determined for either the baseline donor cell sample, the baseline receiver cell sample, or the restored cell sample. […]
# [1] = tested on: senescence-associated secretory factors (SASF); experiment: protein array of senescence-associated secretory factors; conditions: co-cultured in the presence of manumycin vs absence; FIG. 11
# Text: as §1, §2
# telomere length = telomere length of restored cell sample; conditions: pair R1-D1, presence vs absence of manumycin; FIG. 12
# Text: In an embodiment, the donor cell sample, receiver cell sample, or both are subjected to at least one analytical technique to characterize the quality of the cell sample. Herein, the “quality” of the cell sample refers to factors used to characterize the cellular health of the sample and includes parameters such as the number and types of cells present in the sample; the ratio of senescent to non-senescent cells in the sample; the extent of expression of a group of genetic and/or protein biomarkers; the average telomere length of the cells in the sample; and the status of the innate immune function of the cells in the sample. Telomere length may be determined using any suitable methodology, for example, terminal restriction fragment (TRF) analysis. Innate immune function may be evaluated using any suitable methodology such as the ^51Cr cytotoxicity release natural killer cell assay. The donor cell sample quality may be an assessment of the ability of the cells in the sample to improve and/or restore one or more cellular functions of the cells in the receiver cell sample.
# Receiver cell samples (i.e., R1, R2, and R3) were individually paired with donor cell samples (i.e., D1, D2, and D3) and the pairs co-cultured in a transwell culture cell for four weeks. The morphology of the cells was studied at 2 weeks into the co-culture and at 4 weeks of co-culture. […]
compound,measurement,setting,value
"CCCC[C@@H](C)/C=C(C)/C=C(\C)C(=O)NC1=C[C@@](O)(/C=C/C=C/C=C/C(=O)NC2=C(O)CCC2=O)[C@@H]2O[C@@H]2C1=O [manumycin, -[(1S,5S,6R)-5-hydroxy-5-[(1E,3E,5E)-7-[(2-hydroxy-5-oxo-1-cyclopenten-1-yl)amino]-7-oxo-1,3,5-heptatrien-1-yl]-2-oxo-7-oxabicyclo[4.1.0]hept-3-en-3-yl]-2E,4E,6R-trimethyl, 2,4-decadienamide]",morphology of restored cells,restored cells,less robust morphology
same,gene expression of restored cell samples,senescence-related genes,did not display a change in expression levels similar to those observed in the absence of manumycin
same,protein expression levels of restored cell samples,[1],elevated levels of all proteins investigated
same,telomere length of restored cell sample,telomere length,decreased
